ChEMBL document CHEMBL1201862, “PubChem BioAssay data set” (2004)
Values joined by “and” are separate entries in the source; they are usually repeats but may differ in a detail not shown here. Identical values can stand only once. Active and inactive are the calls of the source.

Legend:
HEK293 [1] = experiment: cells; type: functional, cell-based; conditions: Homo sapiens
HEK293 [2] = experiment: NOD2 signaling inhibitors in MDP-stimulated cells, cell-based, uHTS, luminescence (AID 2001); type: functional; conditions: Homo sapiens
HEK293 [3] = experiment: cells; type: functional, cell-based; conditions: Homo sapiens; remark: listed apart in the source
[4] = target: Disintegrin and metalloproteinase domain-containing protein 17 (Homo sapiens, UniProt P78536); experiment: inhibition of ADAM17 substrate cleavage – biochemical, quenched FRET substrate, counter-screen for ADAM10 exosite inhibitor project, dose response (AID 743253)
Tumor necrosis factor = Tumor necrosis factor (Homo sapiens, UniProt P01375); experiment: analog potency on TNFa NF-kB signaling – cell-based, revised, SAR follow-up (AID 2337); type: functional
[5] = potency of ADAM10 substrate cleavage blockers – biochemical, QFRET, dose response (AID 743254);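 also: ADAM10 enzyme with the DM2 quenched FRET peptide as substrate; EDANS fluorescence gain as the protease cuts the substrate; inhibitor potency against ADAM10 proteolytic activity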
HEK293 [6] = experiment: cells; conditions: Homo sapiens
[7] = target: T1, Nucleotide-binding oligomerization domain-containing protein 1 (Homo sapiens, UniProt Q9Y239); experiment: blockers of NOD1 pathway activity – revised, SAR follow-up (AID 2333); type: functional
T1 sequence (Q9Y239 whole entry): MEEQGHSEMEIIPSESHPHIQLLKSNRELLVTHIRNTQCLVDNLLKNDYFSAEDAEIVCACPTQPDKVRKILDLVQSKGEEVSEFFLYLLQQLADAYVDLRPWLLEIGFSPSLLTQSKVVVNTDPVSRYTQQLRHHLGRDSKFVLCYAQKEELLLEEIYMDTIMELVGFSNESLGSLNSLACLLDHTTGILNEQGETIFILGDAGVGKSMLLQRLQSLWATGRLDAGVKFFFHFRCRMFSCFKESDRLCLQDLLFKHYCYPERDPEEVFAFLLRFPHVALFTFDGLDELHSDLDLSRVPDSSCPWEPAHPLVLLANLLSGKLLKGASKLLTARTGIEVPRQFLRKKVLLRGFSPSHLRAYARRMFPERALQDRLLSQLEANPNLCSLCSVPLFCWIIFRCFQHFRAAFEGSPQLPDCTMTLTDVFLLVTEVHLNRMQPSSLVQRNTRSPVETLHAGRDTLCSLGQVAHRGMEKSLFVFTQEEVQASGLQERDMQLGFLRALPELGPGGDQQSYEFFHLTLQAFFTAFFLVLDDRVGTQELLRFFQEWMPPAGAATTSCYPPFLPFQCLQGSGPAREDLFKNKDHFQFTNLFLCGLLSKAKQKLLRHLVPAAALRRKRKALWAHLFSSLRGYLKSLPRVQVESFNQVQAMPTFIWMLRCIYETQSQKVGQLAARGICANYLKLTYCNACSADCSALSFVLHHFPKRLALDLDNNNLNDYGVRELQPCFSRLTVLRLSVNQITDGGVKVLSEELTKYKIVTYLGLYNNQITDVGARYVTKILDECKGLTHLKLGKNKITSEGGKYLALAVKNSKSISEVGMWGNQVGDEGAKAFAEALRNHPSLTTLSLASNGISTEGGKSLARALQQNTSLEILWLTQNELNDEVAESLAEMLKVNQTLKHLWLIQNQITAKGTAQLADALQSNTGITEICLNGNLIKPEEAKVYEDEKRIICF

HEK293 [8] = experiment: inhibition of NOD1-driven NF-kB reporter – cell-based, luminescence, uHTS, primary screen (AID 1578); type: functional; conditions: Homo sapiens
Vasopressin V1b receptor = Vasopressin V1b receptor (Homo sapiens, UniProt P47901); experiment: Late-stage results from the probe development effort to identify antagonists of arginine vasopressin receptor 1a (AVPR1a): fluorescence-based cell-based dose response AVPR1b inhibition counterscreen assay.; type: functional
Vasopressin V2 receptor = Vasopressin V2 receptor (Homo sapiens, UniProt P30518); experiment: Late-stage results from the probe development effort to identify antagonists of arginine vasopressin receptor 1a (AVPR1a): fluorescence-based cell-based dose response AVPR2 inhibition counterscreen assay.; type: functional
[9] = Late-stage results from the probe development effort to identify antagonists of arginine vasopressin receptor 1a (AVPR1a): fluorescence-based cell-based dose response OXTR inhibition counterscreen assay.; type: functional
[10] = Late-stage results from the probe development effort to identify antagonists of arginine vasopressin receptor 1a (AVPR1a): fluorescence-based cell-based dose response AVPR1a inhibition assay.; type: functional
Kallikrein-7 = Kallikrein-7 (Homo sapiens, UniProt P49862); experiment: Fluorescence Intensity-based biochemical primary high throughput dose response assay to identify activators of kallikrein-7 (K7) zymogen.
[11] = A2780 cell killing – plate reader, dry powder samples, cytotoxicity control, dose response (AID 743046); type: functional, cell-based
Paired box protein Pax-8 = Paired box protein Pax-8 (Homo sapiens, UniProt Q06710); experiment: PAX8 transcriptional activity inhibition in RMG-I – RMG-I cells, luciferase, cherry-pick, dose response (AID 687027); type: functional, cell-based;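 also: luciferase reporter driven by Pax8 target thyroperoxidase promoter measured by SteadyGlo luminescence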
[12] = OVCAR8 cell viability loss – plate reader, dry powder samples, PAX8 project, dose response (AID 743197); type: functional, cell-based; conditions: OVCAR-8
[13] = general cell-killing toxicity readout – plate reader, dry powder samples, cytotoxicity control for PAX8 inhibitor project, dose response (AID 743021); type: functional, cell-based
[14] = OVCAR-3 cell viability loss – plate reader, dry powder samples, PAX8 inhibitor project, dose response (AID 743044); type: functional, cell-based
[15] = rise of 2N DNA cells, HeLa – IC50, dose response (AID 1117349); type: functional, cell-based
[16] = SNU-C1 cell viability reduction, dose response, CellTiter-Glo luminescence (AID 1117323); type: functional, cell-based
[17] = Reduced DLD-1 viability, concentration-response, CellTiter-Glo luminescence (AID 1117352); type: functional
[18] = cytotoxicity toward HT-29 cells – cell-based, CellTiter-Glo luminescence, IC50, dose response (AID 1117330); type: functional
[19] = rise of 4N DNA cells, HeLa – IC50, dose response (AID 1117351); type: functional, cell-based
[20] = CellTiter-Glo luminescence survival assay, SW480 colon tumor line, concentration-response curve, half-maximal inhibitory concentration (AID 1117338); type: functional
[21] = RKO cell viability reduction, dose response, CellTiter-Glo luminescence (AID 1117322); type: functional
[22] = cytotoxicity toward HCT116 cells – cell-based, CellTiter-Glo luminescence, IC50, dose response (AID 1117332); type: functional; conditions: HCT-116
[23] = cytotoxicity toward Colo320 cells – cell-based, CellTiter-Glo luminescence, IC50, dose response (AID 1117334); type: functional; conditions: COLO 320

Kallikrein-7, sequence (P49862 whole entry): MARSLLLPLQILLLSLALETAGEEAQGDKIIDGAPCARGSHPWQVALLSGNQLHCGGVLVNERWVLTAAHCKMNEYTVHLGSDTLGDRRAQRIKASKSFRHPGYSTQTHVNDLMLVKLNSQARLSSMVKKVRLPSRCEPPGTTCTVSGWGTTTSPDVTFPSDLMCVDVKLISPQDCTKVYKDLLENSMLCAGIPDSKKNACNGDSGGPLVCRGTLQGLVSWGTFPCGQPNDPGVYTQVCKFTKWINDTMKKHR
Tumor necrosis factor, sequence (P01375 whole entry): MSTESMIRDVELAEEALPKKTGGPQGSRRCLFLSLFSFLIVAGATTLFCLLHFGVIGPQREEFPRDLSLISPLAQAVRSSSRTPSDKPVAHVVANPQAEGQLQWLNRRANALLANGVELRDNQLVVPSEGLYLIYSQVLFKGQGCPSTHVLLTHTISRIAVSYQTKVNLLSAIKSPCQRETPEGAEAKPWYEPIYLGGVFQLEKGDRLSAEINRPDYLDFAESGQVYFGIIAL
Paired box protein Pax-8, sequence (Q06710 whole entry): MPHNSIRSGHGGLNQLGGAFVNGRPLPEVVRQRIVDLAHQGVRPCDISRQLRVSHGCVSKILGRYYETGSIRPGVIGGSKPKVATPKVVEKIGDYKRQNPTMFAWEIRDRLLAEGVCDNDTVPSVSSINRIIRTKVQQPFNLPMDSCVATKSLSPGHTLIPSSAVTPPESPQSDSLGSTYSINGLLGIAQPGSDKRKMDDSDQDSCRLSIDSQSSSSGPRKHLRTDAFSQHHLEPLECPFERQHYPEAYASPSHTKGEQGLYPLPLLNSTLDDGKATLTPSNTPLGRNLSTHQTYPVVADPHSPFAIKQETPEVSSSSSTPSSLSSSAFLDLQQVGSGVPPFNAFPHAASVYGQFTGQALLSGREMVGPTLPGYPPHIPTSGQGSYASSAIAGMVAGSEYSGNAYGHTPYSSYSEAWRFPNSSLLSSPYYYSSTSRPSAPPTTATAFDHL
Vasopressin V1b receptor, sequence (P47901 whole entry): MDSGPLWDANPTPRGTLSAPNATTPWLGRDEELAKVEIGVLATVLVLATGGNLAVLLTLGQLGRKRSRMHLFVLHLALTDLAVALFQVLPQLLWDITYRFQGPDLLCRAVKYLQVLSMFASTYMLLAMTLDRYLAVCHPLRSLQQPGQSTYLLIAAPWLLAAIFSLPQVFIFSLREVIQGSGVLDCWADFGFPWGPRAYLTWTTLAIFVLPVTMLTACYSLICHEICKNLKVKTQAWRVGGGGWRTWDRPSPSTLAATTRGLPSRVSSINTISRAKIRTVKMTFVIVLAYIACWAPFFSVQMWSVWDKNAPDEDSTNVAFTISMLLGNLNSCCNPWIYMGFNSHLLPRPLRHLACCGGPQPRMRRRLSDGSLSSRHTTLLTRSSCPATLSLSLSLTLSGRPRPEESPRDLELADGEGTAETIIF
Disintegrin and metalloproteinase domain-containing protein 17, sequence (P78536 whole entry, the tested form may be a part): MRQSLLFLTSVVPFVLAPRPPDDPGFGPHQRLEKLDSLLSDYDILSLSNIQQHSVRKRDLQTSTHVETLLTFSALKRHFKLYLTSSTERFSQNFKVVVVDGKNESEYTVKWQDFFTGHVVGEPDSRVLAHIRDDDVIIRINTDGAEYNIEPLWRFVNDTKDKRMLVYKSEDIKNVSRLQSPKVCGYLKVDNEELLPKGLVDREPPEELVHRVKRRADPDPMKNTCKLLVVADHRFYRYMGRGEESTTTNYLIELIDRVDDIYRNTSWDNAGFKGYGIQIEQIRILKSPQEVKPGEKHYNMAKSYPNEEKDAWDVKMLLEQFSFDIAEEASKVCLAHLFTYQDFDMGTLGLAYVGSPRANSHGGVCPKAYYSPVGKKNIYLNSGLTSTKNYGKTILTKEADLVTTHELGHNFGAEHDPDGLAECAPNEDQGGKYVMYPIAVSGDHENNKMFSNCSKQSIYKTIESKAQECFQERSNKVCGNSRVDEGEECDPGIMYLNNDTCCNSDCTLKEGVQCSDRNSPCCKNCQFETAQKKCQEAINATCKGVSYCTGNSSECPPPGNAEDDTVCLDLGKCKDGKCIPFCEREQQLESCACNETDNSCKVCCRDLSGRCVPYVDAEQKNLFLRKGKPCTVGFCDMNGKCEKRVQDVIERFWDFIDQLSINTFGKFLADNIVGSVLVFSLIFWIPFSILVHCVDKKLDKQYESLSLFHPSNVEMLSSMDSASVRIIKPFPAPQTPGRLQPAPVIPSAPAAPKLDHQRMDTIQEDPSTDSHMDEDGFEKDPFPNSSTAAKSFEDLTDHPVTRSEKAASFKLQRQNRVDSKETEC
Vasopressin V2 receptor, sequence (P30518 whole entry): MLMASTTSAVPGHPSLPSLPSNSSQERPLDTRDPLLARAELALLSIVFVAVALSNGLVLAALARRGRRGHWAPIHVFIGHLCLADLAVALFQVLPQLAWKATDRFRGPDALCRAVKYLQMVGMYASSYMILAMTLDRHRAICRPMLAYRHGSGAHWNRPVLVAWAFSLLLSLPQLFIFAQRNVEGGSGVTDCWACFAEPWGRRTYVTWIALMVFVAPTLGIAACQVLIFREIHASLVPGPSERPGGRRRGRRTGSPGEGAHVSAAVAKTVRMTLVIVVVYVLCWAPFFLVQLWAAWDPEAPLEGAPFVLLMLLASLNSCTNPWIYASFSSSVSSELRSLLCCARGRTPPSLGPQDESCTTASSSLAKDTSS

For CCOc1ccc(NC(=O)c2ccc(CN3CCc4ccccc4C3)cc2)cc1, the IC50 (HEK293 [1]) was 3.96 µM (active), the IC50 (HEK293 [2]) was > 20 µM (inactive) and the IC50 (HEK293 [3]) was > 20 µM (inactive). For the same molecule, the IC50 [4] was > 69.5 µM (inactive), the IC50 (Tumor necrosis factor) was 6.05 µM (active) and 2.05 µM (active) and the IC50 [5] was > 69.5 µM (inactive). The IC50 (HEK293 [6]) was > 20 µM (inactive), the IC50 [7] was 1.79 µM (active) and 1.13 µM (active) and the EC50 (HEK293 [8]) was 0.79 µM (active).
In the case of O=C(C1CCN(c2ccc(F)cn2)CC1)N(CC1CC1)c1ccc(Cl)cc1, the IC50 (Vasopressin V1b receptor) is reported as 20.5 µM (inactive), the IC50 (Vasopressin V2 receptor) is reported as 24.3 µM (inactive) and the IC50 [9] is reported as 9 µM (active). The IC50 [10] was 0.0241 µM (active).
In the case of COc1ccccc1N(C)S(=O)(=O)c1ccc(C(=O)Nc2ccc(C(N)=O)cc2)cc1, the EC50 (Kallikrein-7) is reported as 15.8 µM (inactive).
With C[C@H](CO)N1C[C@H](C)[C@H](CN(C)S(=O)(=O)c2ccccc2)OCCCC[C@H](C)Oc2ccc(NS(=O)(=O)c3ccc(Cl)cc3)cc2C1=O the AC50 [11] was 6.87 µM (active), the AC50 (Paired box protein Pax-8) was 10.1 µM (active) and the AC50 [12] was 3.41 µM (active).
In the case of Cc1ccccc1-c1ccc2c(c1)O[C@H](CN(C)C(=O)Nc1ccc(C(F)(F)F)cc1)[C@H](C)CN([C@@H](C)CO)S2(=O)=O, the AC50 [11] is reported as < 0.26 µM (active), the AC50 [13] is reported as 44.3 µM (active) and the AC50 [14] is reported as 42.5 µM (active). For the same molecule, the AC50 (Paired box protein Pax-8) was 9.3 µM (active).
In the case of O=C(Nc1ccc(NC(=O)c2cccs2)cc1)c1cccs1, the EC50 (Kallikrein-7) is reported as > 69.5 µM (inactive).
For O=C1C(O)=C([C@H]2CC[C@H](c3ccc(Cl)cc3)CC2)C(=O)c2ccccc21 [ATOVAQUONE], the IC50 [15] was > 10 µM (inactive), the IC50 [16] was 0.368 µM (active) and the IC50 [17] was 0.0838 µM (active). For the same molecule, the IC50 [18] was 0.411 µM (active), the IC50 [19] was > 10 µM (inactive) and the IC50 [20] was 0.0946 µM (active). The IC50 [21] was 0.114 µM (active), the IC50 [22] was 0.138 µM (active) and the IC50 [23] was 0.176 µM (active).
